Laboratory results from ChEMBL document CHEMBL1201862, “PubChem BioAssay data set” (2004).
Calls of active or inactive are those of the source.

Assays:
fMet-Leu-Phe receptor = fMet-Leu-Phe receptor (Homo sapiens, UniProt P21462); experiment: FPR ligands, dose response (AID 519); type: functional
[1] = TRPM1 promoter luciferase reporter signal decrease, dose response, MITF inhibitor project, cell-based, SK-MEL-5, dry powder, set 8 (AID 624430); type: functional
[2] = MITF Orthogonal Assay: SK-MEL-5 CTG Assay Measured in Cell-Based System Using Plate Reader - 2084-02_Inhibitor_Dose_DryPowder_Activity_Set7.; type: functional
[3] = MITF: Counter assay: A375 proliferation Measured in Cell-Based System Using Plate Reader - 2084-03_Inhibitor_Dose_DryPowder_Activity_Set8.; type: functional; settings: A-375
[4] = biological target: Disintegrin and metalloproteinase domain-containing protein 17 (Homo sapiens, UniProt P78536); experiment: ADAM17 protease inhibitors, dose response, counter-screen for ADAM10 exosite inhibitor project, biochemical, quenched FRET substrate (AID 743253)
Chain of Disintegrin and metalloproteinase domain-containing protein 17 (P78536 whole entry, the tested form may be a part): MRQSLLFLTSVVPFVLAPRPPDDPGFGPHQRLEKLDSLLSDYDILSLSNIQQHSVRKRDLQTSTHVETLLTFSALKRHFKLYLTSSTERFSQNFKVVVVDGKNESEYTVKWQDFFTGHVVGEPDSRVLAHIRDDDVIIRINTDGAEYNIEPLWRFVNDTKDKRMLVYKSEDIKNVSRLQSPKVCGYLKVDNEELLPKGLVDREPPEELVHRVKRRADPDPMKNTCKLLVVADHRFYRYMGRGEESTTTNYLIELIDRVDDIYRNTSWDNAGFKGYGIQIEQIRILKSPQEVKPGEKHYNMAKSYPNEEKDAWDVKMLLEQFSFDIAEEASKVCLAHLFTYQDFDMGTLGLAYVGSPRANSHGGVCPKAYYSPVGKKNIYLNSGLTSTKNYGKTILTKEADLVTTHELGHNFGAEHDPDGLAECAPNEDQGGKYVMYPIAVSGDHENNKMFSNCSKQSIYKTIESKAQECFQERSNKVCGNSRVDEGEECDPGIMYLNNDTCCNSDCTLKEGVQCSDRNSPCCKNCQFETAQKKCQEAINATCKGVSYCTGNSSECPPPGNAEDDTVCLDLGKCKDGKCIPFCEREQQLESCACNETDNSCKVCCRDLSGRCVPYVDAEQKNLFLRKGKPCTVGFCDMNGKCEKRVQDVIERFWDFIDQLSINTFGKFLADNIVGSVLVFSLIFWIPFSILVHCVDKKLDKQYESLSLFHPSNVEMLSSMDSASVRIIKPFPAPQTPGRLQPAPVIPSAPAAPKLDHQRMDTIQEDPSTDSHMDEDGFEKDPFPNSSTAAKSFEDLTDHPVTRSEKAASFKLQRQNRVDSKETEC

[5] = ADAM10 inhibitors, peptide cleavage, dose response, biochemical, QFRET (AID 743254);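 also: ADAM10 enzyme with the DM2 quenched FRET peptide as substrate; EDANS fluorescence gain as the protease cuts the substrate; inhibitor potency against ADAM10 proteolytic activity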
cells [6] = type: functional, cell-based
[7] = biological target: T1, Trace amine-associated receptor 1 (Homo sapiens, UniProt Q96RJ0); experiment: Fluorescence-based cell-based high throughput dose response assay to identify agonists of the human trace amine associated receptor 1 (TAAR1).; type: functional
T1 sequence (Q96RJ0 whole entry): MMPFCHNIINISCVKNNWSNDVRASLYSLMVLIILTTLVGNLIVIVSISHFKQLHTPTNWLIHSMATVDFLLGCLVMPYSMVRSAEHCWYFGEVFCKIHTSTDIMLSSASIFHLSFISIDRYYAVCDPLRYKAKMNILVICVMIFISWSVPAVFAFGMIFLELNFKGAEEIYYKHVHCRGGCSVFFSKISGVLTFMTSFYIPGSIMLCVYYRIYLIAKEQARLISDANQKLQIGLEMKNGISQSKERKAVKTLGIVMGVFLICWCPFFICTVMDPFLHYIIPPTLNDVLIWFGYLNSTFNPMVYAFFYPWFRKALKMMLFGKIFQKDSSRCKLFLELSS

cells [8] = type: functional, cell-based; remark: listed apart in the source
[9] = biological target: T1, Trace amine-associated receptor 1; experiment: Counterscreen for agonists of the human trace amine associated receptor 1 (hTAAR1): Fluorescence-based cell-based high throughput dose response assay to identify hTAAR1 agonist that also desensitize TAAR1 receptor response.; type: functional
Albumin = Albumin (Bos taurus, UniProt P02769); experiment: Counterscreen for inhibitors of T-cell receptor (TCR)-CD3 interaction: Fluorescence-based biochemical high throughput dose response assay to identify inhibitors of T-cell receptor (TCR)-CD3 interaction using a TAMRA-labeled BSA probe.; type: functional
Chain of Albumin (P02769 whole entry): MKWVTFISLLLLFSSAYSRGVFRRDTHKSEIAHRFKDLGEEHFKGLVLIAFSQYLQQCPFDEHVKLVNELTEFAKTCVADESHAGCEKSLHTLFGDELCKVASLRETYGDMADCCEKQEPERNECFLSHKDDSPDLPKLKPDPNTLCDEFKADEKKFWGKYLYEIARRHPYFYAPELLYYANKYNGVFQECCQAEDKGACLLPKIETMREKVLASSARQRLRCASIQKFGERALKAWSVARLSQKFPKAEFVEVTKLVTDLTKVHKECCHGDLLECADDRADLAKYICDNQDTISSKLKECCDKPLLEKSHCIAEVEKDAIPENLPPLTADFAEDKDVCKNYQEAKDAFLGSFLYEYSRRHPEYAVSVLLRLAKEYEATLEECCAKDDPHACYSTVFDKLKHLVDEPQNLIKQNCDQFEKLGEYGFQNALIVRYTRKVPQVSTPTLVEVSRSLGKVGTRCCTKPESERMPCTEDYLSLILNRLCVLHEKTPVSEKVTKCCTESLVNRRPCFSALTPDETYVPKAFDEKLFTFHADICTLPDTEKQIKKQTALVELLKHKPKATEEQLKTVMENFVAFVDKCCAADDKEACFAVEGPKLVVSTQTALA

[10] = inhibitors of PGC1a acetylation in cells, dose response, cell-based, cherry-picked samples (AID 720514); type: functional;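 also: potency may reflect raised or lowered acetylation signal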
Paired box protein Pax-8 = Paired box protein Pax-8 (Homo sapiens, UniProt Q06710); experiment: inhibitors of PAX8-driven TPO luciferase reporter, dose response, RMG-I cells, cherry-pick (AID 687027); type: functional, cell-based;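 also: luciferase reporter driven by Pax8 target thyroperoxidase promoter measured by SteadyGlo luminescence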
Chain of Paired box protein Pax-8 (Q06710 whole entry): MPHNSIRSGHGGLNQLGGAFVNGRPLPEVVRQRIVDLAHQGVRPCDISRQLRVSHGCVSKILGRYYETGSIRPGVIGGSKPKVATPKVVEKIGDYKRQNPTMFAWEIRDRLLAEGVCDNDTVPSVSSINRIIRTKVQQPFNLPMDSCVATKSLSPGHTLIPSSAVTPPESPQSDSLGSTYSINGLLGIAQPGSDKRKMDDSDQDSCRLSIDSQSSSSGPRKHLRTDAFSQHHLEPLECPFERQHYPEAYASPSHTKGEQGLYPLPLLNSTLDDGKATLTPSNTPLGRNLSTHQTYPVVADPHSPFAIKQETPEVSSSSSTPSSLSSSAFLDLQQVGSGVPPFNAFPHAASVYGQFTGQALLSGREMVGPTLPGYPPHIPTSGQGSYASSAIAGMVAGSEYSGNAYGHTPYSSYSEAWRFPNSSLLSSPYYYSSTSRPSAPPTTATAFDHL

[11] = biological target: T2, DNA repair protein RAD52 homolog (Homo sapiens, UniProt P43351); type: functional, biochemical
T2 sequence (P43351 whole entry): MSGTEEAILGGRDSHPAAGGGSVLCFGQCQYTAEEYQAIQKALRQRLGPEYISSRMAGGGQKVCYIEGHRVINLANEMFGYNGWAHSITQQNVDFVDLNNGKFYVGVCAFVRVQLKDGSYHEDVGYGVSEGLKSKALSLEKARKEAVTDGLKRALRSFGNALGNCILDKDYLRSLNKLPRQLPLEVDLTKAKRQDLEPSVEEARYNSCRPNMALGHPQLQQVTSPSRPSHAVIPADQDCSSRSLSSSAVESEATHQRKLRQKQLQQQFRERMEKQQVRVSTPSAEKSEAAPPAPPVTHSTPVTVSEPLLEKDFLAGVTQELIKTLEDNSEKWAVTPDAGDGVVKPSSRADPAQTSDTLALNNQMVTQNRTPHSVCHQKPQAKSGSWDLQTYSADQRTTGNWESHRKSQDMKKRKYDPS

[12] = THP-1 cell cytotoxicity, dose response, cytotoxicity control for Vif-APOBEC3G degradation inhibitor project, THP-1 cells (AID 1117359); type: functional; settings: Human immunodeficiency virus 1, THP-1
[13] = NIH:OVCAR-3 ovarian cancer cell cytotoxicity, dose response, PAX8 inhibitor project, plate reader, dry powder samples (AID 743044); type: functional, cell-based
[14] = IGROV1 ovarian cancer cell cytotoxicity, dose response, PAX8 inhibitor project, plate reader, dry powder samples (AID 743043); type: functional, cell-based; settings: IGROV-1
[15] = cytotoxicity in OVCAR8 ovarian cancer cells, dose response, PAX8 project, cell-based, plate reader, dry powder samples (AID 743197); type: functional; settings: OVCAR-8

Chain of fMet-Leu-Phe receptor (P21462 whole entry): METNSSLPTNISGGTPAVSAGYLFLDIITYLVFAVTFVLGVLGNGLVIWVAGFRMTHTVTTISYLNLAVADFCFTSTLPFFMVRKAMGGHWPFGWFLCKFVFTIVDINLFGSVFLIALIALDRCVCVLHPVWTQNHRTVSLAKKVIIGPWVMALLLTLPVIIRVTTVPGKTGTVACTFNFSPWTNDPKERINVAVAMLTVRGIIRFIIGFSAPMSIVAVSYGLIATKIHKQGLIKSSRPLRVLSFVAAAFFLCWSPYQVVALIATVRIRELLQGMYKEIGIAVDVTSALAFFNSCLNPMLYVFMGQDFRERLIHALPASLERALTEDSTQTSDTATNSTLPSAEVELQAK

With `O=C(C1=C(O)C(=O)N(CCOCCO)C1c1cccs1)c1cccs1` (stereo unspecified) the Ki (fMet-Leu-Phe receptor) was 21.4 µM (inactive).

For `O=C1C(Nc2ccc(Cl)c(Cl)c2)=C(N2CCCC2)C(=O)c2ccccc21`, the AC50 [1] was 8.91 µM (active), the AC50 [2] was 29.2 µM (active) and the AC50 [3] was > 70 µM (inactive).

In the case of `O=C1C(Nc2ccc(F)cc2F)=C(N2CCCC2)C(=O)c2ccccc21`, the AC50 [1] is reported as 0.677 µM (active), the AC50 [2] is reported as 2.35 µM (active) and the AC50 [3] is reported as 8.05 µM (active).

In the case of `CC(O)(c1cccc(F)c1)c1nc(/C=C/c2ccccc2)cs1` (stereo unspecified), the IC50 [4] is reported as > 69.5 µM (inactive) and the IC50 [5] is reported as 25 µM (inactive).

In the case of `COc1ccccc1CC(=O)NCCc1ccccc1`, the IC50 (cells [6]) is reported as > 29.9 µM (inactive), the EC50 [7] is reported as 3.18 µM (active) and the EC50 (cells [8]) is reported as > 29.9 µM (inactive). For the same compound, the IC50 [9] was 9 µM (active).

With `COc1cc(OC)cc(C(=O)N/N=C/c2ccc(OC)c(COc3ccc4ccccc4c3)c2)c1` the IC50 (Albumin) was > 94.1 µM (inactive).

For `C[C@H](CO)N1C[C@H](C)[C@H](CN(C)C(=O)NC2CCCCC2)Oc2cc(C#Cc3ccc(F)cc3)ccc2S1(=O)=O`, the AC50 [10] was 12.8 µM (active) and the AC50 (Paired box protein Pax-8) was 7.83 µM (active).

In the case of `CC1=CC(C)(C)N=C(Nc2nc(C)c3cc(C)cc(C)c3n2)N1`, the AC50 [11] is reported as 5.16 µM (active) and the CC50 [12] is reported as 37.6 µM (active).

For `CN1C(=O)C(=CN2CCN(C(=O)c3ccco3)CC2)C(=O)N(C)C1=S`, the IC50 (cells [6]) was > 29.9 µM (inactive), the EC50 [7] was 4.85 µM (active) and the EC50 (cells [8]) was > 29.9 µM (inactive). For the same compound, the IC50 [9] was > 29.9 µM (inactive).

In the case of `C[C@@H]1CN([C@@H](C)CO)C(=O)c2cc(NC(=O)Nc3ccc(C(F)(F)F)cc3)ccc2O[C@@H](C)CCCCO[C@H]1CN(C)Cc1ccc2c(c1)OCO2`, the AC50 [13] is reported as 9.82 µM (active), the AC50 (Paired box protein Pax-8) is reported as 14.3 µM (active) and the AC50 [14] is reported as 29 µM (active). For the same compound, the AC50 [15] was 24 µM (active).
